Laboratory results from ChEMBL document CHEMBL1212812, “Multi-target spectral moment QSAR versus ANN for antiparasitic drugs against different parasite species” (Bioorg Med Chem, 2010).
pIC50: −log10 of the molar value.

These compounds were tested on Plasmodium falciparum (assay: Antimicrobial activity against Plasmodium falciparum).
Assay type: functional, organism-based

SMILES | pIC50
NNC(=O)c1ccc(N2CCN(c3ccc(C(=O)NN)cc3)CC2)cc1 | 6.00
CN(C)CCC=C1c2ccccc2CCc2ccccc21 [AMITRIPTYLINE] | 3.25
CCN(CC)Cc1cc(Nc2ccncc2)ccc1O | 3.87
CNc1ccc(Nc2c3ccccc3nc3cc(Cl)ccc23)cc1 | 6.00
Cc1ccc(C(=O)/C=C2\C(=O)Nc3ccc(Br)cc32)cc1 | 5.52
CC[C@H]1OC(=O)[C@H](C)[C@@H](O[C@H]2C[C@@](C)(OC)[C@@H](O)[C@H](C)O2)[C@H](C)[C@@H](O[C@@H]2O[C@H](C)C[C@H](N(C)C)[C@H]2O)[C@](C)(O)C[C@@H](C)/C(=N\OCOCCOC)[C@H](C)[C@@H](O)[C@]1(C)O [ROXITHROMYCIN] | 4.72
O=C(NO)c1ccccc1 [BENZOHYDROXAMATE] | 4.77
CC(C)[C@H](CO)Nc1nc(Nc2cccc(Cl)c2)c2ncn(C(C)C)c2n1 [PURVALANOLA] | 5.52
CCCNC(=O)CC[C@@H](C)[C@H]1CC[C@H]2[C@@H]3[C@H](OC(C)=O)C[C@@H]4CC5(CC[C@]4(C)[C@H]3CC[C@]12C)OOC1(CCC(CC)CC1)OO5 (single isomer, unassigned; form 2) | 6.00
CCc1nc(N)nc(N)c1Cc1cc(OC)c(OC)c(OC)c1 | 4.30
OC(c1cc(C(F)(F)F)nc2c(C(F)(F)F)cccc12)C1CCCCN1 (stereo unspecified) [MEFLOQUINE] | 5.30
O=C1Nc2ccccc2/C1=C\c1ccc(C(F)(F)F)cc1 | 5.40
CCc1nc(N)nc(N)c1Cc1ccc(OCc2ccccc2)c(OC)c1 | 5.30
CC(=O)OCCCc1nc(N)nc(N)c1-c1cccc(Cl)c1 | 5.70
C=C[C@@H]1CN2CC[C@@]3(CNc4c3ccc(O)c4[C@H]3CCCN3C)[C@@H]2C[C@@H]1C[C@H]1c2[nH]c3ccccc3c2CCN1C [STRYCHNOPHYLLINE] | 5.52
O=C(NCc1ccccc1)C1=CC2c3ccccc3C1c1ccccc12 | 4.28
Cn1cnc2c(NCc3ccccc3)nc(NCCO)nc21 [OLOMOUCINE] | 5.52
C=C[C@H]1CN2CC[C@H]1C[C@H]2[C@H](O)c1ccnc2ccccc12 [CINCHONIDINE] | 4.57
CN(C)c1ccc(Nc2c3ccccc3nc3ccccc23)cc1 | 6.00
CC1C2c3ccccc3C(c3ccccc32)C1C(=O)/N=C/N(C)C (stereo unspecified) | 4.31
CCNCCCC(C)Nc1ccnc2cc(Cl)ccc12 (stereo unspecified) [DESETHYLCHLOROQUINE] | 5.52
CC(C)CCNC(P(=O)(O)O)P(=O)(O)O [(ISOPENTYLAMINO)METHYLENEDIPHOSPHONIC ACID] | 3.70
C/C=C1/CN2CCc3c([nH]c4ccccc34)[C@@H]2C[C@@H]1Cc1nccc2c1[nH]c1ccccc12 [USAMBARENSINE] | 5.70
O=P(O)(O)C(NC1CC1)P(=O)(O)O [(CYCLOPROPYLAMINO)METHYLENEDIPHOSPHONIC ACID] | 3.70

SMILES | pIC50
Cc1nc(N)nc(N)c1Cc1ccc(OCc2ccccc2)c(OCc2ccccc2)c1 | 5.52
CC(=O)C1C(=O)Nc2ccccc21 (stereo unspecified) | 4.54
COc1ccc(Cc2cnc(N)nc2N)cc1OCc1ccccc1 | 5.40
CC(C)(C)c1cc(NC(P(=O)(O)O)P(=O)(O)O)cc(C(C)(C)C)c1 | 3.70
C[C@H]1[C@@H](O)O[C@@H]2O[C@@]3(C)CC[C@H]4[C@H](C)CC[C@@H]1[C@@]24OO3 [ARTENIMOL] | 3.00
COc1cc(C)c2c(Oc3cccc(C(F)(F)F)c3)c(OC)cc(NC(C)CCCN)c2n1 (stereo unspecified) [TAFENOQUINE] | 3.83
CC(=O)[C@H]1CC[C@H]2[C@@H]3CCC4=CC(=O)CC[C@]4(C)[C@H]3CC[C@]12C [PROGESTERONE] | 4.62
O=C1NC(=S)S/C1=C1\C(=O)Nc2ccccc21 | 4.77
COCCCOc1ccnc(C[S+]([O-])c2nc3ccccc3[nH]2)c1C (stereo unspecified) [RABEPRAZOLE] | 5.15
CC1=C(O)[C@@](C)(CCC(C)C)SC1=O [THIOLACTOMYCIN 3] | 3.59
NC(=O)C1=CC2c3ccccc3C1c1ccccc12 | 4.46
Cc1c(O)noc1-c1ccccc1 | 4.54
O=C1Nc2ccccc2/C1=C\c1c(Cl)cccc1Cl | 4.77
O=C(NO)c1ccc(O)c(O)c1 | 4.80
CCCCCCCCCCCOCCOCCOCCOCCOCCO | 4.17
CN(C)/N=N\C(=O)C1C2c3ccccc3C(c3ccccc32)C1C(=O)/N=N/N(C)C (stereo unspecified) | 4.48
NC1=NC(c2cccc(OCCCOc3cc(Cl)c(Cl)cc3Cl)c2)N(c2cccc(Cl)c2)C(N)=N1 (stereo unspecified) | 5.05
N=C(N)NCCCCCCCCCCNC(=N)N [SYNTHALIN] | 4.80
CC1C2c3ccccc3C(c3ccccc32)C1CN (stereo unspecified) | 4.52
CCOC(=O)c1ccc(N2CCN(c3ccc(C(=O)OCC)cc3)CC2)cc1 | 6.00
O=P(O)(O)C(NC1CCCCC1)P(=O)(O)O [(CYCLOHEXYLAMINO)METHYLENEDIPHOSPHONIC ACID] | 3.70
CO[C@H]1O[C@@H]2O[C@@]3(C)CC[C@H]4[C@H](C)CC[C@@H]([C@H]1C)[C@@]24OO3 | 3.00
Oc1ccc(Nc2ccnc3cc(Cl)ccc23)cc1 | 4.72
C/C=C1/C[n+]2ccc3c([nH]c4ccccc43)c2C[C@@H]1C1=CN2c3ccccc3[C@]34CCN5C/C(=C/C)[C@H](C[C@H]53)[C@@H]([C@@H]1O)[C@H]24 [TETRADEHYDROLONGICAUDATINE] | 6.00

SMILES | pIC50
COc1ccnc(C[S+]([O-])c2nc3cc(OC(F)F)ccc3[nH]2)c1OC (stereo unspecified) [PANTOPRAZOLE] | 4.41
CN(C)[C@@H]1C(O)=C(C(N)=O)C(=O)[C@@]2(O)C(O)=C3C(=O)c4c(O)cccc4[C@@](C)(O)[C@H]3[C@H](O)[C@@H]12 [OXYTETRACYCLINE] | 4.47
Nc1ncc(Cc2cccc(Oc3ccccc3)c2)c(N)n1 | 4.52
CC1C2c3ccccc3C(c3ccccc32)C1C(=O)Nc1cccnc1 (stereo unspecified) | 4.10
Cc1c(OCC(F)(F)F)ccnc1C[S+]([O-])c1nc2ccccc2[nH]1 (stereo unspecified) [LANSOPRAZOLE] | 4.96
C=C[C@H]1CN2CCc3c([nH]c4ccc(O)cc34)[C@@H]2C[C@@H]1C[C@H]1c2[nH]c3ccccc3c2CCN1C | 5.70
NC(=O)NO [HYDROXYUREA] | 3.10
CS(=O)(=O)Nc1ccc(Nc2c3ccc(N)cc3nc3cc(N)ccc23)cc1 | 6.00
CC1(C)Oc2c(c3nc4ccccc4nc3c3ccccc23)CC1Br (stereo unspecified) | 5.05
CC1C2c3ccccc3C(c3ccccc32)C1CN(C)C (stereo unspecified) | 4.68
CC1=C(O)[C@@](C)(CCC(C)CCCC(C)C)SC1=O (stereo partly specified) [THIOLACTOMYCIN 6] | 4.15
CN1CCN(CCCN2c3ccccc3Sc3ccc(C(F)(F)F)cc32)CC1 [TRIFLUOPERAZINE] | 5.22
O=C1Nc2ccccc2/C1=C/C(=O)c1ccc(F)cc1 | 6.00
O=P(O)(O)C(Nc1cccnc1)P(=O)(O)O | 3.70
CN(C)[C@@H]1C(O)=C(C(=O)NCN2CCCC2)C(=O)[C@@]2(O)C(O)=C3C(=O)c4c(O)cccc4[C@@](C)(O)[C@H]3C[C@@H]12 [ROLITETRACYCLINE] | 4.68
Cn1c2nc3ccccc3c-2cc2cc(F)ccc21 | 5.30
COc1cc(Cc2cnc(N)nc2N)ccc1OCc1ccccc1 | 5.30
N/C(=N\O)c1cc(O)c(O)c(O)c1 | 4.42
Cn1c2nc3ccccc3c-2cc2c(Br)cccc21 | 4.49
CN(C)CCCC1(c2ccc(F)cc2)OCc2cc(C#N)ccc21 (stereo unspecified) [CITALOPRAM] | 3.65
CCCCCCCCCCO[C@@H]1O[C@H](CO)[C@@H](O)[C@H](O)[C@H]1O | 3.63
O=C(O)C1C2c3ccccc3C(c3ccccc32)C1CBr (stereo unspecified) | 4.40
COc1cc(NC(C)CCCN)c2nccc(C)c2c1OCCCCCc1c(C)cccc1C (stereo unspecified) | 4.66
CCc1nc(N)nc(N)c1-c1cccc(Cl)c1 | 5.05

SMILES | pIC50
CC1SC(=O)C(C)(C)C1=O (stereo unspecified) [THIOLACTOMYCIN 10] | 4.34
CC(CCCN)Nc1ccnc2cc(Cl)ccc12 (stereo unspecified) [BIDESETHYL CHLOROQUINE] | 3.87
Nc1ncc(Cc2cccc(OCc3ccccc3)c2)c(N)n1 | 5.52
O=C1Nc2ccccc2/C1=C/C(=O)c1ccccc1 | 5.40
Nc1nc(N)c(-c2cccc(Cl)c2)c(CCCc2ccccc2)n1 | 5.22
CC(=O)/C=C1\C(=O)Nc2ccccc21 | 4.43
O=C1NC(=O)/C(=C2/C(=O)Nc3ccccc32)S1 | 4.72
CNCC(O)CC12CCC(c3ccccc31)c1ccccc12 (stereo unspecified) [OXAPROTILINE] | 3.61
CCCCC1C(=O)N(c2ccccc2)N(c2ccc(O)cc2)C1=O (stereo unspecified) [OXYPHENBUTAZONE ANHYDROUS] | 4.82
CC(C)(C)NCc1cc(Nc2ccnc3cc(Cl)ccc23)cc(-c2ccc(Cl)cc2)c1O [TEBUQUINE] | 4.28
C=C(C)[C@@H]1CC[C@]2(C)CC[C@]3(C)[C@H](CC[C@@H]4[C@@]5(C)CC[C@H](O)C(C)(C)[C@@H]5CC[C@]43C)[C@@H]12 [LUPEOL] | 4.55
Nc1nc(N)c(-c2cccc(Cl)c2)c(CCCOC(=O)c2ccccc2)n1 | 5.10
COc1ncnc(NS(=O)(=O)c2ccc(N)cc2)c1OC [SULFADOXINE] | 4.43
C=C[C@H]1CN2CC[C@H]1C[C@@H]2[C@@H](O)c1ccnc2ccc(OC)cc12 [QUINIDINE] | 4.62
CCn1cc(C(=O)O)c(=O)c2cc(F)c(N3CCNCC3)cc21 [NORFLOXACIN] | 4.12
C=CCC1Cc2c(c3ccccc3c3nc4ccccc4nc23)OC1(C)C (stereo unspecified) | 4.70
COc1cc(NC(C)CCCN)c2nccc(C)c2c1OCCCCCc1ccccc1 (stereo unspecified) | 5.30
CCCCCCCCCC(O)(P(=O)(O)O)P(=O)(O)O | 6.00
NC1=NC(c2cccc(Oc3ccc(Cl)cc3)c2)N(c2ccc(Cl)cc2)C(N)=N1 (stereo unspecified) | 5.40
C/C=C1/CN2CC[C@]34c5ccccc5N5C(=O)C([C@H]6C[C@]78c9ccccc9N9C(=O)C=C[C@@H]([C@H]97)[C@H]7C[C@@H]8N6C/C7=C/C)=C[C@H]([C@H]53)[C@H]1C[C@H]24 [SUNGUCINE] | 5.70
CC1C2c3ccccc3C(c3ccccc32)C1C(=O)/N=N/N(C)C (stereo unspecified) | 4.29
O=P(O)(O)C(NC1CCCC1)P(=O)(O)O [(CYCLOPENTYLAMINO)METHYLENEDIPHOSPHONIC ACID] | 3.70
CCN(CC)CCCC(C)Nc1ccncc1 (stereo unspecified) | 4.04
c1cc(N2CCN(c3ccc(C4OCCO4)cc3)CC2)ccc1C1OCCO1 | 6.00
